Reference: patent US20090155209A1, “NOVEL MACROCYCLIC INHIBITORS OF HEPATITIS C VIRUS REPLICATION” (priority 2007, published 2009)

Assays:
NS3-NS4 [1] = molecular target: T1, NS3-NS4 (Hepatitis C virus genotype 1a, UniProt P27958); experiment: cell-based; conditions: EC50, NS3-NS4 activity
NS3-NS4 [2] = molecular target: T1, NS3-NS4; experiment: NS3-NS4 activity, IC50 (Example 37, Table 8); assay type: biochemical

T1 sequence (P27958 1027-1657): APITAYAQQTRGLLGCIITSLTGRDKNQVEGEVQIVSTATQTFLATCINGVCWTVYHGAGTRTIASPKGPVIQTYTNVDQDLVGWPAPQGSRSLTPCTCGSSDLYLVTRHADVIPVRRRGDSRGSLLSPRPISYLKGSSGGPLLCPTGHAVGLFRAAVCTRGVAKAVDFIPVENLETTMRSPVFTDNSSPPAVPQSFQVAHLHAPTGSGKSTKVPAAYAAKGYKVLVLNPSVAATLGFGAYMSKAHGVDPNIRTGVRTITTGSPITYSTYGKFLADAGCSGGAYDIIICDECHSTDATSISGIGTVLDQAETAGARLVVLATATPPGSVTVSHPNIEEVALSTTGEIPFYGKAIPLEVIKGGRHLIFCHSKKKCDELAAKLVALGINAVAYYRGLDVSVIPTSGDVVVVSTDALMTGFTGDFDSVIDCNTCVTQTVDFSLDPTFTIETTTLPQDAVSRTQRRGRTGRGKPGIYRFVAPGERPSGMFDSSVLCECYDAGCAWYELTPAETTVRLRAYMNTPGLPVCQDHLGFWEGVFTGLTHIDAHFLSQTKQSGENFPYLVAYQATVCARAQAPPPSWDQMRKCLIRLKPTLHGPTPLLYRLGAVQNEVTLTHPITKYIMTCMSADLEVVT
T1 sequence (P27958 1658-1711): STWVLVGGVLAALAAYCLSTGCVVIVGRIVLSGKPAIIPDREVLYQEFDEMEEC

SMILES	EC50 (NS3-NS4 [1]) [nM]	IC50 (NS3-NS4 [2]) [nM]
CCC1(OC(=O)N[C@H]2CCCCC/C=C\[C@@H]3C[C@@]3(C(=O)NS(=O)(=O)C3CC3)NC(=O)[C@@H]3C[C@@H](OC(=O)N4Cc5cccc(F)c5C4)CN3C2=O)CC1 [Compound 442]	< 100	< 100
CC(C)(OC(=O)N[C@H]1CCCCC/C=C\[C@@H]2C[C@@]2(C(=O)NS(=O)(=O)C2CC2)NC(=O)[C@@H]2C[C@@H](OC(=O)N3Cc4cccc(F)c4C3)CN2C1=O)C1CC1 [Compound 443]	< 100	< 100
CC(C)(C)OC(=O)N[C@H]1CCCCC/C=C\[C@@H]2C[C@@]2(C(=O)NS(=O)(=O)C2(C)CC2)NC(=O)[C@@H]2C[C@@H](OC(=O)N3Cc4cccc(F)c4C3)CN2C1=O [Compound 444]	< 100	< 100
CC(C)(C)OC(=O)N[C@H]1CCCCC/C=C\[C@@H]2C[C@@]2(C(=O)NS(=O)(=O)C2(C)CC2)NC(=O)[C@@H]2C[C@@H](OC(=O)N3Cc4cccc(Cl)c4C3)CN2C1=O [Compound 445]	< 100	< 100
O=C(N[C@H]1CCCCC/C=C\[C@@H]2C[C@@]2(C(=O)NS(=O)(=O)C2CC2)NC(=O)[C@@H]2C[C@@H](OC(=O)N3Cc4cccc(F)c4C3)CN2C1=O)OC1(C2CC2)CC1 [Compound 446]	< 100	< 100
O=C1N[C@]2(C(=O)NS(=O)(=O)C3CC3)C[C@H]2/C=C\CCCCC[C@H](Nc2ccc(F)cc2)C(=O)N2C[C@H](OC(=O)N3Cc4cccc(F)c4C3)C[C@@H]12 [Compound 447, (2R,6S,13aS,14aR,16aS,Z)-14a-(cyclopropylsulfonylcarbamoyl)-6-(4-fluorophenylamino)-5,16-dioxo-1,2,3,5,6,7,8,9,10,11,13a,14,14a,15,16,16a-hexadecahydrocyclopropa[e]pyrrolo[1,2-a][1,4]diazacyclopentadecin-2-yl 4-fluoroisoindoline-2-carboxylate]	< 100	< 100
CC(C)(C)OC(=O)N[C@H]1CCCCC/C=C\[C@@H]2C[C@@]2(C(=O)NS(=O)(=O)c2ccccc2)NC(=O)[C@@H]2C[C@@H](OC(=O)N3Cc4cccc(F)c4C3)CN2C1=O [Compound 501]	< 100	< 100
CC(C)(C)OC(=O)N[C@H]1CCCCC/C=C\[C@@H]2C[C@@]2(C(=O)NS(=O)(=O)Cc2ccccc2F)NC(=O)[C@@H]2C[C@@H](OC(=O)N3Cc4cccc(F)c4C3)CN2C1=O [Compound 507]	< 100	< 100
CC(C)(C)OC(=O)N[C@H]1CCCCC/C=C\[C@@H]2C[C@@]2(C(=O)NS(=O)(=O)Cc2cccc(F)c2)NC(=O)[C@@H]2C[C@@H](OC(=O)N3Cc4cccc(F)c4C3)CN2C1=O [Compound 508]	100 to 1000	< 100
CC(C)(C)OC(=O)N[C@H]1CCCCC/C=C\[C@@H]2C[C@@]2(C(=O)NS(=O)(=O)Cc2ccc(F)cc2)NC(=O)[C@@H]2C[C@@H](OC(=O)N3Cc4cccc(F)c4C3)CN2C1=O [Compound 509]	100 to 1000	< 100
CC(C)(C)OC(=O)N[C@H]1CCCCC/C=C\[C@@H]2C[C@@]2(C(=O)NS(=O)(=O)Cc2ccccc2Cl)NC(=O)[C@@H]2C[C@@H](OC(=O)N3Cc4cccc(F)c4C3)CN2C1=O [Compound 510]	< 100	< 100
CC(C)(C)OC(=O)N[C@H]1CCCCC/C=C\[C@@H]2C[C@@]2(C(=O)NS(=O)(=O)Cc2cccc(Cl)c2)NC(=O)[C@@H]2C[C@@H](OC(=O)N3Cc4cccc(F)c4C3)CN2C1=O [Compound 511]	< 100	< 100
CC(C)(C)OC(=O)N[C@H]1CCCCC/C=C\[C@@H]2C[C@@]2(C(=O)NS(=O)(=O)Cc2ccc(Cl)cc2)NC(=O)[C@@H]2C[C@@H](OC(=O)N3Cc4cccc(F)c4C3)CN2C1=O [Compound 512]	< 100	< 100
Cc1cccc(CS(=O)(=O)NC(=O)[C@@]23C[C@H]2/C=C\CCCCC[C@H](NC(=O)OC(C)(C)C)C(=O)N2C[C@H](OC(=O)N4Cc5cccc(F)c5C4)C[C@H]2C(=O)N3)c1 [Compound 514]	100 to 1000	< 100
Cc1ccc(CS(=O)(=O)NC(=O)[C@@]23C[C@H]2/C=C\CCCCC[C@H](NC(=O)OC(C)(C)C)C(=O)N2C[C@H](OC(=O)N4Cc5cccc(F)c5C4)C[C@H]2C(=O)N3)cc1 [Compound 515]	< 100	< 100
CC(C)(C)OC(=O)N[C@H]1CCCCC/C=C\[C@@H]2C[C@@]2(C(=O)NS(=O)(=O)Cc2cccc(C(F)(F)F)c2)NC(=O)[C@@H]2C[C@@H](OC(=O)N3Cc4cccc(F)c4C3)CN2C1=O [Compound 518]	100 to 1000	< 100
CC(C)(C)OC(=O)N[C@H]1CCCCC/C=C\[C@@H]2C[C@@]2(C(=O)NS(=O)(=O)Cc2ccc(C(F)(F)F)cc2)NC(=O)[C@@H]2C[C@@H](OC(=O)N3Cc4cccc(F)c4C3)CN2C1=O [Compound 519]	100 to 1000	< 100
CC(C)(C)OC(=O)N[C@H]1CCCCC/C=C\[C@@H]2C[C@@]2(C(=O)NS(=O)(=O)Cc2cc(F)ccc2F)NC(=O)[C@@H]2C[C@@H](OC(=O)N3Cc4cccc(F)c4C3)CN2C1=O [Compound 520]	< 100	< 100
CC(C)(C)OC(=O)N[C@H]1CCCCC/C=C\[C@@H]2C[C@@]2(C(=O)NS(=O)(=O)Cc2c(F)cccc2F)NC(=O)[C@@H]2C[C@@H](OC(=O)N3Cc4cccc(F)c4C3)CN2C1=O [Compound 521]	< 100	< 100
CC(C)(C)OC(=O)N[C@H]1CCCCC/C=C\[C@@H]2C[C@@]2(C(=O)NS(=O)(=O)Cc2ccc(F)c(F)c2)NC(=O)[C@@H]2C[C@@H](OC(=O)N3Cc4cccc(F)c4C3)CN2C1=O [Compound 522]	100 to 1000	< 100
CC(C)(C)OC(=O)N[C@H]1CCCCC/C=C\[C@@H]2C[C@@]2(C(=O)NS(=O)(=O)Cc2cc(F)cc(F)c2)NC(=O)[C@@H]2C[C@@H](OC(=O)N3Cc4cccc(F)c4C3)CN2C1=O [Compound 523]	100 to 1000	< 100
CC(C)(C)OC(=O)N[C@H]1CCCCC/C=C\[C@@H]2C[C@@]2(C(=O)NS(=O)(=O)Cc2ccc(Cl)cc2Cl)NC(=O)[C@@H]2C[C@@H](OC(=O)N3Cc4cccc(F)c4C3)CN2C1=O [Compound 524]	100 to 1000	< 100
CC(C)(C)OC(=O)N[C@H]1CCCCC/C=C\[C@@H]2C[C@@]2(C(=O)NS(=O)(=O)Cc2cc(Cl)ccc2Cl)NC(=O)[C@@H]2C[C@@H](OC(=O)N3Cc4cccc(F)c4C3)CN2C1=O [Compound 525]	100 to 1000	< 100
CC(C)(C)OC(=O)N[C@H]1CCCCC/C=C\[C@@H]2C[C@@]2(C(=O)NS(=O)(=O)Cc2ccc(Cl)c(Cl)c2)NC(=O)[C@@H]2C[C@@H](OC(=O)N3Cc4cccc(F)c4C3)CN2C1=O [Compound 526]	100 to 1000	< 100
CC(C)(C)OC(=O)N[C@H]1CCCCC/C=C\[C@@H]2C[C@@]2(C(=O)NS(=O)(=O)Cc2c(Cl)cccc2Cl)NC(=O)[C@@H]2C[C@@H](OC(=O)N3Cc4cccc(F)c4C3)CN2C1=O [Compound 527]	< 100	< 100
CC(C)(C)OC(=O)N[C@H]1CCCCC/C=C\[C@@H]2C[C@@]2(C(=O)NS(=O)(=O)Cc2cc(C(F)(F)F)cc(C(F)(F)F)c2)NC(=O)[C@@H]2C[C@@H](OC(=O)N3Cc4cccc(F)c4C3)CN2C1=O [Compound 528]	10000 to 50000	< 100
CC(C)(C)OC(=O)N[C@H]1CCCCC/C=C\[C@@H]2C[C@@]2(C(=O)NS(=O)(=O)c2cccnc2Cl)NC(=O)[C@@H]2C[C@@H](OC(=O)N3Cc4cccc(F)c4C3)CN2C1=O [Compound 529]	< 100	< 100
